Experimental data published in US20140093585A1, “PARP INHIBITORS FOR THE TREATMENT OF CIPN” (AbbVie Inc., priority 2011, published 2014).
“Also recorded” adds a separate entry of the source.

How the values were obtained:
[1] = test system: vincristine model of chemotherapy-induced pain; test: Vincristine model of chemotherapy-induced pain: mechanical threshold with von Frey monofilaments; assay type: in vivo, rats; details: for development of mechanical allodynia (mechanical threshold, von Frey): vincristine 30 ug/kg/day for 12 days; for reversal of mechanical allodynia (von Frey), positive control: rats receiving vincristine, morphine 6 mg/kg i.p. acutely on each day of testing
Description: Rats were administered a PARP Inhibitor, 2-[(2R)-2-methylpyrrolidin-2-yl]-1H-benzimidazole-4-carboxamide (Compound A) or 6-fluoro-2-(2-methylpyrrolidin-2-yl)-1H-benzimidazole-4-carboxamide (Compound B), at doses of 25 mg/kg/day or 50 mg/kg/day (i.p.), for two days prior to the initiation of vincristine. After two days or pre-dosing with the PARP inhibitor, two minipumps were implanted in rats. Vincristine was administered via a subcutaneous mini-osmotic pump that delivered 30 ug/kg/day (i.v) for twelve days. PARP Inhibitor, Compound A or Compound B, or vehicle was administered via a subcutaneous mini-osmotic pump that delivered 25 mg/kg/day, 50 mg/kg/day, or vehicle (i.p.) for twelve days. A positive control group of rats receiving vincristine were dosed acutely with morphine (6 mg/kg, i.p.) on each day of testing. A negative control group of rats received saline. Mechanical threshold was determined for all rats using von Frey monofilaments at 5, 9 and 12 days following initiation of vincristine administration (days 7, 11 and 14 of compound delivery, respectively) for Compound A, and at 3, 6 and 10 days following initiation of vincristine administration (days 5, 8 and 12 of compound delivery, respectively) for Compound B. Mechanical allodynia was observed on all testing days in rats treated with vincristine compared to the naïve group.
Rats were administered a PARP Inhibitor, 2-[(2R)-2-methylpyrrolidin-2-yl]-1H-benzimidazole-4-carboxamide (Compound A), at doses of 25 mg/kg/day or 50 mg/kg/day (i.p., bid) for two days prior to the initiation of vincristine. After two days or pre-dosing with ABT-888, two minipumps were implanted in rats. Vincristine was administered via a subcutaneous mini-osmotic pump that delivered 30 ug/kg/day (i.v) for twelve days. Compound A or vehicle was administered via a subcutaneous mini-osmotic pump that delivered 25 mg/kg/day or 50 mg/kg/day (i.p.) for twelve days. A positive control group of rats receiving vincristine were dosed with acutely morphine (6 mg/kg, i.p.) on each day of testing. A negative control group of rats received saline. Mechanical threshold was determined for all rats using von Frey monofilaments on 5, 9 and 12 days following initiation of vincristine administration (days 7, 11 and 14 of compound delivery, respectively). Mechanical allodynia was observed on all testing days in rats treated with vincristine compared to the naïve group.
Vincristine (i.v, […]) was administered by mini-pump for twelve days. Rats were divided into four groups: Group 1: Vehicle; Group 2: 1-(2-fluoro-5-((4-oxo-3,4,5,6,7,8-hexahydrophthalazin-1-yl)methyl)phenyl)pyrrolidine-2,5-dione (Compound D), 25 mg/kg/day; Group 3: Compound D, 50 mg/kg/day; Group 4: Vehicle+Positive control (morphine). Groups 2 and 3 were pretreated with their respective dose of Compound D (either 25 mg/kg or 50 mg/kg, ip) for two days prior to co-dosing with vincristine. Rats in the positive control group were dosed with vehicle by mini-pump and were acutely administered morphine on day of testing. Mechanical threshold was determined using von Frey monofilaments on days 5, 9, and 12 post-mini-pump implantation. Plasma and brain were collected on day 12. […] Anti-nociceptive efficacy was dose-dependent and observed on days 5, 9, and 12 (FIG. 10).

PAR (pADPr) = test: PAR levels in glabrous hindpaw skin biopsies, ELISA measuring pADPr; assay type: in vivo, rats; details: Example 4; skin biopsies on day 12 of Example 3; Compound A 25 mg/kg and 50 mg/kg; FIG. 8
Description: Following behavioral testing on day 12 in Example 3, skin biopsies were taken from glabrous hindpaw skin from rats in the naïve, vincristine, and vincristine+Compound A groups (n=5 per group). PAR levels were assessed using ab ELISA assay to measure pADPr as previously described (Liu et al., 2008). PAR levels in skin were increased by vincristine, as compared to the saline group.

cisplatin model = test: Cisplatin model: behavioral assays (von Frey mechanical threshold, paw withdrawal latency from radiant heat); assay type: in vivo; details: mice, cisplatin cumulative 23 mg/kg, Compound C 25 or 50 mg/kg/day i.p.
Description: (§1) Mice were administered a PARP Inhibitor, 2-[(2S)-2-methylpyrrolidin-2-yl]-1H-benzimidazole-4-carboxamide (Compound C) at doses of 25 mg/kg/day or 50 mg/kg/day (i.p.) for two days prior to the initiation of cisplatin. The 50 mg/kg dose of Compound C was administered (i.p.) for two days prior to oxaliplatin administration. After two days of pre-dosing with the PARP Inhibitor, mice were co-administered Compound C with cisplatin or oxaliplatin for 5 days (daily injections, i.p.), followed by 5 days off, followed by 5 daily injections (i.p.). Cumulative dose of cisplatin was 23 mg/kg. Cumulative dose of oxaliplatin was 30 mg/kg. Behavioral assays were performed on all groups of mice before dosing, and then at weeks 3, 6, and 8. Behavioral assays including determining mechanical threshold with von Frey monofilaments, determining, latency to paw withdrawal from a radiant heat source, and number of paw lifts from a cold plate.

oxaliplatin model = test: Oxaliplatin model: behavioral assays (von Frey mechanical threshold, paw lifts from cold plate); assay type: in vivo; details: mice, oxaliplatin cumulative 30 mg/kg, Compound C 50 mg/kg i.p.
Description: as §1

[2] = test system: digital nerve SNAP amplitude, cisplatin-treated mice; test: Nerve conduction study: sensory nerve action potential (SNAP) recording from the digital nerve after cisplatin; assay type: in vivo; details: Example 5, cisplatin 2.3 mg/kg/day i.p., Compound C 25 or 50 mg/kg/day (i.p., bid), week 3, FIG. 9
Description: Mice were administered a PARP Inhibitor, 2-[(2S)-2-methylpyrrolidin-2-yl]-1H-benzimidazole-4-carboxamide (Compound C), at doses of 25 mg/kg/day or 50 mg/kg/day (i.p., bid), for two days prior to the initiation of cisplatin. After two days or pre-dosing with Compound C, mice were co-dosed with the PARP inhibitor (25 mg/kg/day or 50 mg/kg/day) and cisplatin (2.3 mg/kg/day, i.p.). The dosing regimen consisted for 5 daily co-injections, followed by 5 days off, and then a repeat of 5 daily co-injection. Nerve conduction studies were performed after the final injections in week 3. Sensory nerve action potential (SNAP) recordings were made from the digital nerve. Cisplatin induced a decrease in amplitude in SNAP recording from the digital nerve, an effect that was prevented by 2-[(2S)-2-methylpyrrolidin-2-yl]-1H-benzimidazole-4-carboxamide (Compound C) treatment (FIG. 9).

C[C@]1(c2nc3c(C(N)=O)cccc3[nH]2)CCCN1 [Compound A, 2-[(2R)-2-methylpyrrolidin-2-yl]-1H-benzimidazole-4-carboxamide] was tested, and the “development of mechanical allodynia (mechanical threshold, von Frey)” value (“development … (mechanical threshold, von Frey)” for short) ([1]; Example 1, rats, Compound A 25 or 50 mg/kg/day i.p., 2 days pre-dosing then mini-pump 12 days, tested 5, 9 and 12 days after vincristine start, FIG. 1) was “attenuated development of mechanical allodynia; also recorded: prevention of vincristine-mediated pain”, the “development … (mechanical threshold, von Frey)” value ([1]; Example 3, rats, Compound A 25 or 50 mg/kg/day (i.p., bid pre-dosing 2 days, then mini-pump 12 days), tested days 5, 9 and 12, FIG. 7) was “attenuated development of mechanical allodynia; also recorded: prevention of vincristine-mediated pain” and the “vincristine-mediated PAR activation (PAR levels) in rat glabrous skin” value (PAR (pADPr)) was “significantly reduced vincristine-mediated PAR activation; also recorded: prevention of vincristine-mediated increase in PAR levels in skin”.

With CC1(c2nc3c(C(N)=O)cc(F)cc3[nH]2)CCCN1 (stereo not drawn) [Compound B, 6-fluoro-2-(2-methylpyrrolidin-2-yl)-1H-benzimidazole-4-carboxamide] the “development … (mechanical threshold, von Frey)” value ([1]; Example 1, rats, Compound B 25 or 50 mg/kg/day i.p., 2 days pre-dosing then mini-pump 12 days, tested 3, 6 and 10 days after vincristine start, FIG. 2) was “attenuated development of mechanical allodynia; also recorded: prevention of vincristine-mediated pain”.

With C[C@@]1(c2nc3c(C(N)=O)cccc3[nH]2)CCCN1 [Compound C, 2-[(2S)-2-methylpyrrolidin-2-yl]-1H-benzimidazole-4-carboxamide] the “development of mechanical allodynia (von Frey)” value (cisplatin model; weeks 3, 6 and 8) was “attenuated development of mechanical allodynia; also recorded: attenuation of cisplatin-mediated mechanical allodynia”, the “development of heat hyperalgesia (latency to paw withdrawal from radiant heat source)” value (cisplatin model; weeks 3 and 6) was “attenuated development of heat hyperalgesia; also recorded: attenuation of cisplatin-mediated heat hyperalgesia” and the “development of cold hyperalgesia (number of paw lifts from cold plate)” value (oxaliplatin model; week 6) was “attenuated development of cold hyperalgesia; also recorded: attenuation of oxaliplatin-mediated cold allodynia”. For the same compound, the “development of mechanical allodynia (von Frey)” value (oxaliplatin model; weeks 3 and 6) was “attenuated development of mechanical allodynia; also recorded: attenuation of oxaliplatin-mediated mechanical allodynia” and the “cisplatin-induced decrease in amplitude in SNAP recording from the digital nerve” value [2] was “prevented; also recorded: prophylactic effect”.

O=C1CCC(=O)N1c1cc(Cc2n[nH]c(=O)c3c2CCCC3)ccc1F [Compound D, 1-(2-fluoro-5-((4-oxo-3,4,5,6,7,8-hexahydrophthalazin-1-yl)methyl)phenyl)pyrrolidine-2,5-dione] was tested, and the “vincristine-induced mechanical allodynia (mechanical threshold, von Frey)” value ([1]; Example 6, rats, vincristine i.v. by mini-pump 12 days, Compound D 25 or 50 mg/kg/day, 2 days ip pretreatment, days 5, 9 and 12 post-mini-pump implantation, FIG. 10) was “attenuated vincristine-induced mechanical allodynia; also recorded: dose-dependent; also recorded: prevention of vincristine-mediated pain”.

For CN1CC[C@]23c4c5ccc(O)c4O[C@H]2[C@@H](O)C=C[C@H]3[C@H]1C5 [Morphine, morphine, reference compound], the “reversal of mechanical allodynia (von Frey), positive control” value ([1]; Example 1) was “fully reversed mechanical allodynia on all testing days” and the “reversal of mechanical allodynia (von Frey), positive control” value ([1]; Example 3) was “fully reversed mechanical allodynia on all testing days”.
